# Assay results taken from US9567586B2, “EpCAM aptamer for detection of cancer stem cells” (DEAKIN UNIVERSITY, priority 2012, dated 2017).
# Like-named read-outs stand apart in the source and are kept apart here.
# Key:
# [1] = system: HT29 colon cancer cells; assay: Tumoursphere formation in 96-well, HT29; type: cell-based, human; conditions: HT29, 3 μM Dox equivalent, 5 days
# Procedure: Under non-adherent and serum-free conditions, only the cancer stem cells (CSCs) and progenitor cells survive and undergo self-renewal as well as proliferate to form tumour spheres. The inventor studied the ability of aptamer-Dox to target cancer stem cells by plating various cell doses of single-cell suspension of HT29 colon cancer cells in ultra-low attachment 96-wells in the presence of 3 μM of free Dox, 3 μM equivalent Dox conjugated with aptamer, 3 μM Dox-negative control aptamer or vehicle control for 5 days. Tumour spheres (with a size >50 μm) were enumerated.
# [2] = system: PLC/PRF/5 hepatocellular carcinoma cell line; assay: Tumoursphere formation in 96-well, PLC/PRF/5; type: cell-based, human
# [3] = system: EpCAM; assay: Immunofluorescence staining of paraffin embedded xenograft tumour sections; design: species or system human; key to Quantification of anti-EpCAM staining by immunofluorescence: ‘−’ no staining; ‘+’ faint incomplete staining in >10% of cells; ‘++’ moderate complete membrance staining; ‘+++’ strong complete membrance staining
# Procedure: (§1) A: Immunofluorescence staining of breast cancer (T47D, MCF7 and MDA-MB-231), colon cancer (HT-29) and glioblastoma (U118MG) xenograft tumours by EpCAM aptamers, DT3 and 23, control aptamer and the anti-EpCAM antibody, 323/A3 (Blue: nuclei; Red: EpCAM positive staining). B: Immunohistochemistry was performed with the anti-EpCAM antibody BerEP4, and all tumours were evaluated by haematoxylin and eosin staining for morphological confirmation. Aptamer staining was performed for 15 min at 37° C., while 323/A3 staining was performed at 4° C. overnight and BerEP4 was performed at room temperature for 20 min. All fluorescent images were taken at 60×, while light microscopy images were taken at 20×. Images are representative of at least three separate experiments. Scale bar: 50 μm.
# (§2) The cell lines of human origin used in this study were purchased from American type Culture Collection. They were glioblastoma U118-MG; breast carcinoma MCF-7, MDA-MB-231 and T47D; and colorectal adenocarcinoma HT-29. Cells were grown and maintained in culture with Dulbecco's Modified Eagle medium (DMEM) (Invitrogen, Victoria, Australia) supplemented with 10% fetal calf serum (MCF-7, T47D, HT-29, and U118-MG), or Roswell Park Memorial Institute 1640 (RPMI 1640) (Invitrogen) with 10% fetal calf serum (MDA-MB-231). Cells were maintained at 37 ^CC in a humidified atmosphere containing 5% CO2. For xenograft studies, single cell suspensions were harvested by trypsinisation, washed with PBS and resuspended in 0.1 mL of PBS for implantation in BALB/c-Foxn1 ^nu female mice. Once tumours had reached approximately […], they were excised and fixed in 10% neutral buffered formalin prior to processing and embedding. All animal procedures were approved by Deakin University Animal Welfare Committee, and in accordance with the Australian Code of Practice for the Care and Use of Animals for Scientific Purposes.
# (§3) Sections from each of the xenograft tumours were cut at 4 μm onto polylysine coated slides prior to deparaffinisation with Histoclear and rehydration through graded ethanol. Heat induced antigen retrieval was performed in a microwave oven using Tris-EDTA buffer (10 mM Tris, 1 mM EDTA, 0.05% Tween 20, pH 9.0) for 20 min and the slides were allowed to cool prior to blocking with 0.1 mg/mL tRNA, 0.1 mg/mL salmon sperm DNA and 1 mg/mL bovine serum albumin (BSA) in phosphate buffered saline (PBS) for 20 min. Following the blocking step, slides were washed in PBS containing 0.1% Tween 20 twice for 2 min prior to incubation with either aptamer or antibody. Aptamers were prepared as previously described (Shigdar S et al, supra). Briefly, aptamers were heated to 85° C. for 5 min, allowed to cool to room temperature for 10 min and then heated at 37° C. for 15 min. Slides were incubated with aptamers at 100 nM concentration in a solution of PBS containing 5 mM MgCl2, 0.1 mg/mL tRNA, 1 mg/mL BSA, 10% dextran sulphate and 500 μg/mL heparin for 15 min at 37° C. The slides were then washed three times for 5 min each prior to incubation with Bisbenzimide Hoechst 33342 (3 μg/mL) for 10 min. Slides were then mounted using VECTASHIELD and coverslipped prior to visualisation using a Fluoview FV10i laser scanning confocal microscope. All images used for direct comparison were taken with identical exposure parameters and are presented without any digital contrast alteration or background subtraction. Antibody staining was performed using the anti-EpCAM antibody 323/A3 (ab8601, Abcam). […]
# [4] = target: T1, native EpCAM expressed on the cell surface (Homo sapiens, UniProt P16422); assay: Binding affinities of EpCAM aptamers by flow cytometry; conditions: read-out: KD (±SEM)
# T1 construct: host or cells: T47D, MCF7, MDA-MB-231, HT-29 (EpCAM-positive); U118MG (EpCAM-negative control)
# T1 sequence (P16422 24-314): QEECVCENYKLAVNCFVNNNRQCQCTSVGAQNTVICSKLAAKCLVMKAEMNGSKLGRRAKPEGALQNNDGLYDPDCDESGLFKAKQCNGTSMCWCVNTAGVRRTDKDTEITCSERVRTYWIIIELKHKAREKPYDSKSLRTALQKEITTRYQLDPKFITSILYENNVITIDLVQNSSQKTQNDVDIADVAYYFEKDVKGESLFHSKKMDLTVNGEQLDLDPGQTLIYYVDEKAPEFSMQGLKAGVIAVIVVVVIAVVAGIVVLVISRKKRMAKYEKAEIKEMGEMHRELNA
# Procedure: (§4) Cells were harvested at 80% confluence with trypsin digestion and resuspended in washing buffer (DPBS with 5 mM MgCl2) and enumerated. Following centrifugation (1000×g for 5 min), the cell pellet was resuspended in assay buffer (DPBS supplemented with 5 mM MgCl2, 0.1 mg/ml tRNA, 0.1 mg/ml salmon sperm DNA, 0.2% [w/v] sodium azide, and 5% FCS) and diluted to 1×10^6/mL. The blocking step was carried out at 4′C. The binding of the aptamers was carried out at 37′C for 30 min or 4′C for 1 h, with the final concentration of magnesium chloride being 2.5 mM in all binding assays.
# (§5) The equilibrium dissociation constant (K′d) of successful 2′-fluoropyrimidine RNA aptamer species to native EpCAM expressed on the cell surface was determined using flow cytometry with EpCAM-positive and -negative cell lines and a negative control (2-O-methyl-pyrimidine) aptamer (5′-DY647-mGCmGACUmGmGUUmACCCmGmGUCmGdT-3′) (SEQ ID NO:13). Kato III or U118MG cells (5×10^5) were first incubated with assay buffer followed by two washes with binding buffer prior to incubation with serial concentrations (approximately 10-fold above and below the apparent K′d) of FITC-labelled aptamer in a 100 μL assay buffer for 1 h on ice. The cells were washed three times, resuspended in 150 μL assay buffer containing 2.5 mM MgCl2 and subjected to flow cytometric analyses. The FITC-labelled unselected library was used as another negative control. The mean fluorescence intensity (MFI) of the unselected library was subtracted from that of the aptamer-target cell to generate the MFI of specific binding. The K′d for each aptamer was determined by Scatchard analysis according to the equation: [Bound aptamer]/[aptamer]=−(1/KD)×[bound aptamer]+([T]tol/KD) where [T]tot represents the total target concentration. Design and Generation of EpCAM Aptamer-siRNA Chimera
# (§6) The binding affinities of both aptamers have been characterised against all five cell lines used in this study by flow cytometry, and the results are shown in Table 1.
# [5] = system: native EpCAM expressed on the cell surface; assay: as above; design: species or system human; conditions: U118MG cells (EpCAM negative); read-out: KD (±SEM)
# Procedure: as §4, §5, §6
# [6] = target: T2, EpCAM (Homo sapiens, UniProt P16422); assay: Immunofluorescence staining of paraffin embedded xenograft tumour sections; design: from tissue; host or cells: xenograft tumours of T47D, MCF7, MDA-MB-231, HT-29 and U118MG cells grown in BALB/c-Foxn1 nu mice, formalin-fixed and paraffin-embedded; key to Quantification of anti-EpCAM staining by immunofluorescence: ‘−’ no staining; ‘+’ faint incomplete staining in >10% of cells; ‘++’ moderate complete membrance staining; ‘+++’ strong complete membrance staining
# T2 sequence (P16422 24-314): T1 sequence (P16422 24-314)
# Procedure: as §1, §2
# as §3, with “Abcam). Slides were washed and blocked following the same protocol as previously described prior to antibody staining. The antibody was prepared at a concentration of 10 μg/mL and the slides were incubated overnight at 4° C. Slides were then washed three times for 5 min followed by incubation with a goat-anti-mouse IgG AlexaFluor 647 conjugate (Invitrogen) at a concentration of 10 μg/mL for 2 h prior to washing, staining with Bisbenzimide Hoechst 33342, and coverslipping.” for “Abcam).”
# [7] = target: T2, EpCAM; conditions: patients with metastatic breast cancer; cited from earlier work
molecule,measurement,setting,value
"CC[C@@H](C(=O)[C@@H](C)[C@@H](O)[C@H](C)[C@@H]1O[C@@H]([C@@H](CC)C(=O)O)CC[C@@H]1C)[C@H]1O[C@]2(C=C[C@@H](O)[C@]3(CC[C@@](C)([C@H]4CC[C@](O)(CC)[C@H](C)O4)O3)O2)[C@H](C)C[C@@H]1C [Saline, Salinomycin]",Number of wells with sphere,[1]; 1 cell seeded/well,0/10
same,Number of wells with sphere,[1]; 10 cells seeded/well,0/10
same,Number of wells with sphere,[1]; 100 cells seeded/well,0/10
same,Number of wells with sphere,[1]; 200 cells seeded/well,2/10
same,Number of wells with sphere,[2]; 1 cell seeded/well,0/10
same,Number of wells with sphere,[2]; 10 cells seeded/well,0/10
same,Number of wells with sphere,[2]; 100 cells seeded/well,0/10
same,Number of wells with sphere,[2]; 200 cells seeded/well,0/10
"5′-GCGACUGGUUACCCGGUCG-3′ (RNA aptamer, modifications not given here, further chemistry not given here) [DT3]",Quantification of anti-EpCAM staining by immunofluorescence,[3]; U118MG xenograft,−
same,staining of U118MG xenograft (in words),[3]; U118MG xenograft that does not express EpCAM,no staining detectable
same,Kd,[4]; HT29 cells,158 ± 70 nM
same,Kd,[4]; MCF7 cells,50 ± 18.5 nM
same,Kd,[4]; MDA-MB-231 cells,98.9 ± 37.8 nM
same,Kd,[4]; T47D cells,74.2 ± 26.2 nM
same,Kd,[5],> 1000 nM
same,staining of HT-29 xenograft sections (in words),[6]; HT-29 colorectal cancer xenograft,did not show any staining
same,Quantification of anti-EpCAM staining by immunofluorescence,[6]; HT-29 xenograft,−
same,Quantification of anti-EpCAM staining by immunofluorescence,[6]; MCF7 xenograft,+ (‘+’ faint incomplete staining in >10% of cells)
same,Quantification of anti-EpCAM staining by immunofluorescence,[6]; MDA-MB-231 xenograft,+ (‘+’ faint incomplete staining in >10% of cells)
same,detection of EpCAM in MDA-MB-231 xenograft tumour (in words),"[6]; MDA-MB-231 xenograft, low EpCAM expression",successfully detect EpCAM
same,Quantification of anti-EpCAM staining by immunofluorescence,[6]; T47D xenograft,++
same,staining of human breast cancer xenografts (in words),"[6]; T47D, MCF7 and MDA-MB-231 xenografts, 100 nM, 15 min, 37° C., dextran sulphate and heparin",highly sensitive staining
adecatumumab: fully humanised monoclonal anti-EpCAM antibody,clinical response,[7],dose-dependent and target dependent clinical responses
